Laboratory results: patent US20140120232A1, “ACID TASTE/ACID SMELL-REDUCING AGENT” (T. HASEGAWA CO., LTD., priority 2011, published 2014)

Test: Sensory evaluation of Vermont drink containing the agent
Details: ten panels
Experimental: Water was added to a mixture of 10 g of apple-cider vinegar (acetic acid: 4.8%), 3 g of honey, 7 g of fructose-glucose liquid sugar mixed with sugar, 0.02 g of citric acid, 0.002 g of trisodium citrate, and 0.1 g of a Vermont flavor (manufactured by T. Hasegawa Co., Ltd.) to give a total amount of 100 mL. To the resulting mixture was added (Z,Z)-4,7-tridecadienal as the acid taste and/or acid smell-reducing agent of the present invention in concentrations shown in the following Table 1 to give Vermont drinks containing the agent.
Sensory evaluation of each drink was carried out by ten panels. […] The piercing aroma characteristic to aldehydes is a characteristic aroma common to every aldehyde and refers to an irritant off-smell giving an image of deteriorated oils and fats, soap, metals, Houttuynia cordata, etc. The judgment of smell was performed by comparing the effects at different concentrations of the acid taste and/or acid smell-reducing agent, and a concentration giving the highest acid taste/acid smell quality was selected. […]

Question: For `CCCCC/C=C\C/C=C/CCC=O` [(E,Z)-4,7-tridecadienal], which “A: number of panels, acid taste/acid smell extreme and cause irritation” value (0.005 ppt) is on record?
Answer: 10

Question: And the “B: number of panels, acid taste/acid smell slightly strong and slightly cause irritation” value (0.005 ppt)?
Answer: 0

Question: And the “C: number of panels, acid taste/acid smell slightly unpleasant” value (0.005 ppt)?
Answer: 0

Question: And the “Flavor judgment: number of panels who judged acid taste/acid smell quality the highest” value (0.005 ppt)?
Answer: 0

Question: What about the “N: number of panels, irritation of acid reduced to give a mild acid taste” value (0.005 ppt) of the same compound?
Answer: 0

Question: And the “X: number of panels, acid taste reduced but piercing odor characteristic to aldehydes unpleasant” value (0.005 ppt)?
Answer: 0

Question: And the “A: number of panels, acid taste/acid smell extreme and cause irritation” value (0.02 ppt)?
Answer: 10

Question: What about the “B: number of panels, acid taste/acid smell slightly strong and slightly cause irritation” value (0.02 ppt) of the same compound?
Answer: 0

Question: And the “C: number of panels, acid taste/acid smell slightly unpleasant” value (0.02 ppt)?
Answer: 0

Question: And the “Flavor judgment: number of panels who judged acid taste/acid smell quality the highest” value (0.02 ppt)?
Answer: 0

Question: What about the “N: number of panels, irritation of acid reduced to give a mild acid taste” value (0.02 ppt) of the same compound?
Answer: 0

Question: What about the “X: number of panels, acid taste reduced but piercing odor characteristic to aldehydes unpleasant” value (0.02 ppt) of the same compound?
Answer: 0

Question: And the “A: number of panels, acid taste/acid smell extreme and cause irritation” value (0.1 ppt)?
Answer: 10

Question: And the “B: number of panels, acid taste/acid smell slightly strong and slightly cause irritation” value (0.1 ppt)?
Answer: 0

Question: What about the “C: number of panels, acid taste/acid smell slightly unpleasant” value (0.1 ppt) of the same compound?
Answer: 0

Question: And the “Flavor judgment: number of panels who judged acid taste/acid smell quality the highest” value (0.1 ppt)?
Answer: 0

Question: And the “N: number of panels, irritation of acid reduced to give a mild acid taste” value (0.1 ppt)?
Answer: 0

Question: What about the “X: number of panels, acid taste reduced but piercing odor characteristic to aldehydes unpleasant” value (0.1 ppt) of the same compound?
Answer: 0

Question: And the “A: number of panels, acid taste/acid smell extreme and cause irritation” value (0.2 ppt)?
Answer: 8

Question: And the “B: number of panels, acid taste/acid smell slightly strong and slightly cause irritation” value (0.2 ppt)?
Answer: 2

Question: And the “C: number of panels, acid taste/acid smell slightly unpleasant” value (0.2 ppt)?
Answer: 0

Question: And the “Flavor judgment: number of panels who judged acid taste/acid smell quality the highest” value (0.2 ppt)?
Answer: 0

Question: And the “N: number of panels, irritation of acid reduced to give a mild acid taste” value (0.2 ppt)?
Answer: 0

Question: What about the “X: number of panels, acid taste reduced but piercing odor characteristic to aldehydes unpleasant” value (0.2 ppt) of the same compound?
Answer: 0

Question: And the “A: number of panels, acid taste/acid smell extreme and cause irritation” value (0.5 ppt)?
Answer: 6

Question: What about the “B: number of panels, acid taste/acid smell slightly strong and slightly cause irritation” value (0.5 ppt) of the same compound?
Answer: 3

Question: What about the “C: number of panels, acid taste/acid smell slightly unpleasant” value (0.5 ppt) of the same compound?
Answer: 1

Question: And the “Flavor judgment: number of panels who judged acid taste/acid smell quality the highest” value (0.5 ppt)?
Answer: 0

Question: What about the “N: number of panels, irritation of acid reduced to give a mild acid taste” value (0.5 ppt) of the same compound?
Answer: 0

Question: And the “X: number of panels, acid taste reduced but piercing odor characteristic to aldehydes unpleasant” value (0.5 ppt)?
Answer: 0

Question: What about the “A: number of panels, acid taste/acid smell extreme and cause irritation” value (1 ppb) of the same compound?
Answer: 0

Question: And the “B: number of panels, acid taste/acid smell slightly strong and slightly cause irritation” value (1 ppb)?
Answer: 0

Question: And the “C: number of panels, acid taste/acid smell slightly unpleasant” value (1 ppb)?
Answer: 2

Question: What about the “Flavor judgment: number of panels who judged acid taste/acid smell quality the highest” value (1 ppb) of the same compound?
Answer: 0

Question: And the “N: number of panels, irritation of acid reduced to give a mild acid taste” value (1 ppb)?
Answer: 4

Question: What about the “X: number of panels, acid taste reduced but piercing odor characteristic to aldehydes unpleasant” value (1 ppb) of the same compound?
Answer: 4

Question: What about the “A: number of panels, acid taste/acid smell extreme and cause irritation” value (1 ppt) of the same compound?
Answer: 0

Question: And the “B: number of panels, acid taste/acid smell slightly strong and slightly cause irritation” value (1 ppt)?
Answer: 4

Question: What about the “C: number of panels, acid taste/acid smell slightly unpleasant” value (1 ppt) of the same compound?
Answer: 5

Question: What about the “Flavor judgment: number of panels who judged acid taste/acid smell quality the highest” value (1 ppt) of the same compound?
Answer: 0

Question: What about the “N: number of panels, irritation of acid reduced to give a mild acid taste” value (1 ppt) of the same compound?
Answer: 1

Question: What about the “X: number of panels, acid taste reduced but piercing odor characteristic to aldehydes unpleasant” value (1 ppt) of the same compound?
Answer: 0

Question: What about the “A: number of panels, acid taste/acid smell extreme and cause irritation” value (5 ppt) of the same compound?
Answer: 0

Question: What about the “B: number of panels, acid taste/acid smell slightly strong and slightly cause irritation” value (5 ppt) of the same compound?
Answer: 1

Question: What about the “C: number of panels, acid taste/acid smell slightly unpleasant” value (5 ppt) of the same compound?
Answer: 3

Question: And the “Flavor judgment: number of panels who judged acid taste/acid smell quality the highest” value (5 ppt)?
Answer: 4

Question: What about the “N: number of panels, irritation of acid reduced to give a mild acid taste” value (5 ppt) of the same compound?
Answer: 6

Question: What about the “X: number of panels, acid taste reduced but piercing odor characteristic to aldehydes unpleasant” value (5 ppt) of the same compound?
Answer: 0

Question: What about the “A: number of panels, acid taste/acid smell extreme and cause irritation” value (10 ppb) of the same compound?
Answer: 0

Question: What about the “B: number of panels, acid taste/acid smell slightly strong and slightly cause irritation” value (10 ppb) of the same compound?
Answer: 0

Question: What about the “C: number of panels, acid taste/acid smell slightly unpleasant” value (10 ppb) of the same compound?
Answer: 2

Question: What about the “Flavor judgment: number of panels who judged acid taste/acid smell quality the highest” value (10 ppb) of the same compound?
Answer: 0

Question: And the “N: number of panels, irritation of acid reduced to give a mild acid taste” value (10 ppb)?
Answer: 4

Question: What about the “X: number of panels, acid taste reduced but piercing odor characteristic to aldehydes unpleasant” value (10 ppb) of the same compound?
Answer: 4

Question: What about the “A: number of panels, acid taste/acid smell extreme and cause irritation” value (20 ppt) of the same compound?
Answer: 0

Question: What about the “B: number of panels, acid taste/acid smell slightly strong and slightly cause irritation” value (20 ppt) of the same compound?
Answer: 0

Question: And the “C: number of panels, acid taste/acid smell slightly unpleasant” value (20 ppt)?
Answer: 2

Question: And the “Flavor judgment: number of panels who judged acid taste/acid smell quality the highest” value (20 ppt)?
Answer: 3

Question: What about the “N: number of panels, irritation of acid reduced to give a mild acid taste” value (20 ppt) of the same compound?
Answer: 8

Question: What about the “X: number of panels, acid taste reduced but piercing odor characteristic to aldehydes unpleasant” value (20 ppt) of the same compound?
Answer: 0

Question: What about the “A: number of panels, acid taste/acid smell extreme and cause irritation” value (50 ppb) of the same compound?
Answer: 0

Question: And the “B: number of panels, acid taste/acid smell slightly strong and slightly cause irritation” value (50 ppb)?
Answer: 0

Question: And the “C: number of panels, acid taste/acid smell slightly unpleasant” value (50 ppb)?
Answer: 0

Question: What about the “Flavor judgment: number of panels who judged acid taste/acid smell quality the highest” value (50 ppb) of the same compound?
Answer: 0

Question: What about the “N: number of panels, irritation of acid reduced to give a mild acid taste” value (50 ppb) of the same compound?
Answer: 2

Question: And the “X: number of panels, acid taste reduced but piercing odor characteristic to aldehydes unpleasant” value (50 ppb)?
Answer: 8

Question: What about the “A: number of panels, acid taste/acid smell extreme and cause irritation” value (100 ppt) of the same compound?
Answer: 0

Question: What about the “B: number of panels, acid taste/acid smell slightly strong and slightly cause irritation” value (100 ppt) of the same compound?
Answer: 1

Question: And the “C: number of panels, acid taste/acid smell slightly unpleasant” value (100 ppt)?
Answer: 2

Question: What about the “Flavor judgment: number of panels who judged acid taste/acid smell quality the highest” value (100 ppt) of the same compound?
Answer: 3

Question: What about the “N: number of panels, irritation of acid reduced to give a mild acid taste” value (100 ppt) of the same compound?
Answer: 7

Question: What about the “X: number of panels, acid taste reduced but piercing odor characteristic to aldehydes unpleasant” value (100 ppt) of the same compound?
Answer: 0

Question: What about the “A: number of panels, acid taste/acid smell extreme and cause irritation” value (500 ppt) of the same compound?
Answer: 0

Question: And the “B: number of panels, acid taste/acid smell slightly strong and slightly cause irritation” value (500 ppt)?
Answer: 1

Question: What about the “C: number of panels, acid taste/acid smell slightly unpleasant” value (500 ppt) of the same compound?
Answer: 3

Question: And the “Flavor judgment: number of panels who judged acid taste/acid smell quality the highest” value (500 ppt)?
Answer: 0

Question: And the “N: number of panels, irritation of acid reduced to give a mild acid taste” value (500 ppt)?
Answer: 4

Question: What about the “X: number of panels, acid taste reduced but piercing odor characteristic to aldehydes unpleasant” value (500 ppt) of the same compound?
Answer: 2
